# Activity calls are given as the source filed them. For most assays here, no stated cut-off is given here; in the data, actives have a measured EC50 and inactives only a lower limit.
# Target: T1, Corticotropin-releasing factor receptor 2/Corticotropin-releasing factor-binding protein (Homo sapiens, UniProt P24387+Q13324)
# T1 sequence (Q13324 whole entry): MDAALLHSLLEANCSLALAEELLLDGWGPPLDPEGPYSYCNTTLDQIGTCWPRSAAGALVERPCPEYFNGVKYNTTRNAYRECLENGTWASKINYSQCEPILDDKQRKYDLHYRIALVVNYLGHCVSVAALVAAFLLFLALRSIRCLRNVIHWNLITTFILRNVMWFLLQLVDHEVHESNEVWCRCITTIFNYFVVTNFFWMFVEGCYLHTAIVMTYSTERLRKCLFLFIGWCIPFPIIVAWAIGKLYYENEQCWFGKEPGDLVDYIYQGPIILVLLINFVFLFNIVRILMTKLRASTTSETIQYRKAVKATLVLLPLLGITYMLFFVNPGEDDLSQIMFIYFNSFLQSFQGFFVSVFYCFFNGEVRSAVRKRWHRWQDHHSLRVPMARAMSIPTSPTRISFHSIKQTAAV
# T1 sequence (P24387 whole entry): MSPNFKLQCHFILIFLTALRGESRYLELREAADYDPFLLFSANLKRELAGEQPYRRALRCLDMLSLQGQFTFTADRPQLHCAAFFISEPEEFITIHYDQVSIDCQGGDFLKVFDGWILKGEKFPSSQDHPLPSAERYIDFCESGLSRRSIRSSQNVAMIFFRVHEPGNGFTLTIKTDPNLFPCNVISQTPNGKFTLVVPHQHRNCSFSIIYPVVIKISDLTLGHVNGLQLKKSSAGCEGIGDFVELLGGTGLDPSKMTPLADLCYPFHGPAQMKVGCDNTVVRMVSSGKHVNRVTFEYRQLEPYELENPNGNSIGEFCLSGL
# Test: Dose Response confirmation of uHTS hits for small molecule antagonists of the CRF-binding protein and CRF-R2 receptor complex.
# Format: functional
# Conditions: read-out: IC50_Mean
row,Structure (SMILES),IC50
1,CCCn1c(C(C)NS(=O)(=O)c2ccccc2)n[nH]c1=S (stereo not given),> 47.1 µM (inactive)
2,C=Cn1cc[n+](CC(=O)c2ccc(Cl)cc2)c1,> 47.1 µM (inactive)
3,CC(=O)Oc1ccc2cc(-c3cccnc3)c(=O)oc2c1,> 47.1 µM (inactive)
4,COc1cccc(N2CCN(S(=O)(=O)c3c(C)[nH]c(C)c3C(=O)N3CCCC3)CC2)c1,> 47.1 µM (inactive)

# Tested on: not listed separately
# Test: Trypanosoma cruzi growth suppression in host cells – NIH3T3 host cells, beta-gal luminescence, confirmation (AID 2044);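 further: intracellular parasites grown in NIH/3T3 mouse fibroblasts as host cells; luminescent beta-galactosidase reporter signal from transgenic T. cruzi replicating inside host cells; inhibitors lower the luminescence signal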
# Format: functional, cell-based
# Conditions: not given
row,Structure (SMILES),EC50
1,O=C(Nc1cccc(F)c1)NC1CCN(Cc2ccccc2)CC1,0.736 µM (active)
2,Cc1ccc2cc3cc(C(=O)N(CC(=O)NC4CCCC4)c4cccc(C)c4C)sc3nc2c1,1.61 µM (active)
3,CC(=O)N(CCCN(C)C)c1nc2ccc(C)cc2s1,0.236 µM (active)
4,c1ccc(Oc2nc(-c3ccccn3)nc3ccccc23)cc1,3.8 µM (active)
5,CCC(C)(C)n1nnnc1C(c1cccs1)N1CCN(c2nc3ccccc3s2)CC1 (stereo not given),1.96 µM (active)
6,CC(=O)NC(=S)Nc1ccc(S(=O)(=O)N(C)Cc2ccccc2)cc1,1.22 µM (active)
7,Cc1cc2c(n1-c1ccc(Br)cc1)CC(C)(C)CC2=O,2.05 µM (active)
8,COc1ccc(CN2CCCC(C(=O)c3ccc(Cl)cc3)C2)cc1Cn1cncn1 (stereo not given),0.508 µM (active)
9,O=C(Nc1ccn(Cc2c(F)c(F)cc(F)c2F)n1)c1ccc(COc2ccccc2Cl)cc1,0.867 µM (active)
10,CN(CC(=O)Nc1ccc(S(=O)(=O)N2CCCC2)cc1)Cc1ccc(Cl)c(Cl)c1,2.04 µM (active)
11,COc1ccc(-n2nc(C)c3c(O)c4c(nc32)CCCC4)cc1,0.21 µM (active)
12,CN1CCN(c2ccc(S(=O)(=O)N3CCCCC3)cc2NC(=O)COc2ccc(F)cc2)CC1,0.538 µM (active)
13,CC(CCc1ccccc1)NC(=O)c1ccc(NC(=O)c2cccc(Br)c2)cc1 (stereo not given),2.02 µM (active)
14,O=C(COc1ccccc1C(=O)NCc1ccncc1)Nc1ccc(Br)cc1,2.15 µM (active)
15,CCC(=O)Nc1ccc(-c2nnc(-c3ccccc3)o2)cc1,1.55 µM (active)
16,OCC1(Cc2ccc(Cl)cc2)CCN(Cc2ccc(Oc3ncccn3)cc2)CC1,0.966 µM (active)
17,CN(C)CCCNc1oc(-c2ccccc2Cl)nc1S(=O)(=O)c1ccc(F)cc1,0.135 µM (active)
18,c1ccc(Cc2noc(CN3CCN(CCOc4ccccc4)CC3)n2)cc1,1.09 µM (active)
19,Cc1ccc([N+](=O)[O-])cc1NC(=O)CN(C1CCCCC1)S(=O)(=O)c1ccc(Cl)cc1,3.08 µM (active)

# Tested on: Streptococcus
# Test: GAS UMAA2166 growth inhibition – luminescence, BacTiterGlo, counter-screen for streptokinase expression inhibitor project, dose response (AID 1915);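 further: potency for reduction of bacterial viability or growth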
# Format: functional, organism-based
# Conditions: not given
row,Structure (SMILES),EC50
1,COc1ccccc1NC(=O)C(=O)NNC(=O)COc1ccc2ccccc2c1,17.7 µM (active)
2,Cc1cc(C)c2nc(N3C(=O)C(O)=C(C(=O)c4ccco4)C3c3ccco3)sc2c1 (stereo not given),5.86 µM (active)
3,CC(=O)Oc1ccccc1C1=NN(C(=O)/C=C/c2ccccc2)C(c2ccccc2)C1 (stereo not given),> 150 µM (not active)
4,c1ccc(Oc2nc(-c3ccccn3)nc3ccccc23)cc1,22.5 µM (active)
5,CC1CCN(C(=O)c2ccc3c(c2)NC(=O)/C(=C/c2ccccc2)S3)CC1,6.87 µM (active)

# Tested on: not listed separately
# Test: NIH3T3 cell viability loss – ATP luminescence, mouse fibroblasts, counter-screen, dose response (AID 2010);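 further: cells exposed to compound for about 90 hours before reading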
# Format: functional, cell-based
# Conditions: not given
row,Structure (SMILES),EC50
1,O=C(Nc1cccc(F)c1)NC1CCN(Cc2ccccc2)CC1,> 60 µM (not active)
2,Cc1ccc2cc3cc(C(=O)N(CC(=O)NC4CCCC4)c4cccc(C)c4C)sc3nc2c1,> 30 µM (not active)
3,CC(=O)N(CCCN(C)C)c1nc2ccc(C)cc2s1,> 60 µM (not active)
4,c1ccc(Oc2nc(-c3ccccn3)nc3ccccc23)cc1,> 60 µM (not active)
5,CCC(C)(C)n1nnnc1C(c1cccs1)N1CCN(c2nc3ccccc3s2)CC1 (stereo not given),8.58 µM (active)
6,CC(=O)NC(=S)Nc1ccc(S(=O)(=O)N(C)Cc2ccccc2)cc1,> 30 µM (not active)
7,Cc1cc2c(n1-c1ccc(Br)cc1)CC(C)(C)CC2=O,> 60 µM (not active)
8,COc1ccc(CN2CCCC(C(=O)c3ccc(Cl)cc3)C2)cc1Cn1cncn1 (stereo not given),> 30 µM (not active)
9,O=C(Nc1ccn(Cc2c(F)c(F)cc(F)c2F)n1)c1ccc(COc2ccccc2Cl)cc1,> 60 µM (inconclusive)
10,CN(CC(=O)Nc1ccc(S(=O)(=O)N2CCCC2)cc1)Cc1ccc(Cl)c(Cl)c1,> 60 µM (not active)
11,COc1ccc(-n2nc(C)c3c(O)c4c(nc32)CCCC4)cc1,> 60 µM (not active)
12,CN1CCN(c2ccc(S(=O)(=O)N3CCCCC3)cc2NC(=O)COc2ccc(F)cc2)CC1,> 60 µM (not active)
13,CC(CCc1ccccc1)NC(=O)c1ccc(NC(=O)c2cccc(Br)c2)cc1 (stereo not given),> 60 µM (not active)
14,O=C(COc1ccccc1C(=O)NCc1ccncc1)Nc1ccc(Br)cc1,> 60 µM (not active)
15,CCC(=O)Nc1ccc(-c2nnc(-c3ccccc3)o2)cc1,> 60 µM (not active)
16,OCC1(Cc2ccc(Cl)cc2)CCN(Cc2ccc(Oc3ncccn3)cc2)CC1,> 60 µM (inconclusive)
17,CN(C)CCCNc1oc(-c2ccccc2Cl)nc1S(=O)(=O)c1ccc(F)cc1,24.1 µM (active)
18,c1ccc(Cc2noc(CN3CCN(CCOc4ccccc4)CC3)n2)cc1,> 60 µM (not active)
19,Cc1ccc([N+](=O)[O-])cc1NC(=O)CN(C1CCCCC1)S(=O)(=O)c1ccc(Cl)cc1,> 60 µM (not active)

# Target: T2, Streptokinase A (Streptococcus pyogenes serotype M1, UniProt P10520)
# T2 sequence (P10520 whole entry): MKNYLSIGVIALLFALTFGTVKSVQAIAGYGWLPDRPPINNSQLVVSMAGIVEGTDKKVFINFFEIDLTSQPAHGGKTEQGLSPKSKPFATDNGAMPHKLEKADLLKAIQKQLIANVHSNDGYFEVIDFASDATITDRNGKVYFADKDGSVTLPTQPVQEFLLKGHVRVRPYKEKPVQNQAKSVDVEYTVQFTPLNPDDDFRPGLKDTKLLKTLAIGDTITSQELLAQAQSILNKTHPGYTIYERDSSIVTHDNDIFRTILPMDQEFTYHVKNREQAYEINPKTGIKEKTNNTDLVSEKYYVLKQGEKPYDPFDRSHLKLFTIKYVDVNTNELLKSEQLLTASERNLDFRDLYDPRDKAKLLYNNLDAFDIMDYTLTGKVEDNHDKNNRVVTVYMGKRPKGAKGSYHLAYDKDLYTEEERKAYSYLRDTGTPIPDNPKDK
# Test: viability-normalized secreted streptokinase activity reduction – plasminogen activation absorbance, OD405, dose response (AID 1914);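 further: secreted streptokinase activity via plasminogen activation per viability signal from cell pellet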
# Format: functional, Streptococcus pyogenes M1 GAS
# Conditions: not given
row,Structure (SMILES),EC50
1,COc1ccccc1NC(=O)C(=O)NNC(=O)COc1ccc2ccccc2c1,> 150 µM (not active)
2,CC(=O)Oc1ccccc1C1=NN(C(=O)/C=C/c2ccccc2)C(c2ccccc2)C1 (stereo not given),> 150 µM (not active)
3,c1ccc(Oc2nc(-c3ccccn3)nc3ccccc23)cc1,> 150 µM (not active)
4,CC1CCN(C(=O)c2ccc3c(c2)NC(=O)/C(=C/c2ccccc2)S3)CC1,> 150 µM (not active)

# Target: T1, Corticotropin-releasing factor receptor 2/Corticotropin-releasing factor-binding protein
# Test: activators of CRF receptor 2 with binding protein – uHTS hits, confirmation (AID 602473)
# Format: functional
# Conditions: read-out: EC50_Mean
row,Structure (SMILES),EC50
1,CCCn1c(C(C)NS(=O)(=O)c2ccccc2)n[nH]c1=S (stereo not given),> 53 µM (inactive)
2,C=Cn1cc[n+](CC(=O)c2ccc(Cl)cc2)c1,> 53 µM (inactive)
3,CC(=O)Oc1ccc2cc(-c3cccnc3)c(=O)oc2c1,> 53 µM (inactive)
4,COc1cccc(N2CCN(S(=O)(=O)c3c(C)[nH]c(C)c3C(=O)N3CCCC3)CC2)c1,> 53 µM (inactive)

# Tested on: Streptococcus sp. 'group A'
# Test: Streptococcus pyogenes SK(-)GAS viability under kanamycin – luminescence, BacTiterGlo, confirmation, counter-screen for streptokinase expression inhibitor project, dose response (AID 1900)
# Format: functional, organism-based
# Conditions: not given
row,Structure (SMILES),EC50
1,COc1ccccc1NC(=O)C(=O)NNC(=O)COc1ccc2ccccc2c1,4.14 µM (active)
2,Cc1cc(C)c2nc(N3C(=O)C(O)=C(C(=O)c4ccco4)C3c3ccco3)sc2c1 (stereo not given),2.52 µM (active)
3,CC(=O)Oc1ccccc1C1=NN(C(=O)/C=C/c2ccccc2)C(c2ccccc2)C1 (stereo not given),17.1 µM (active)
4,c1ccc(Oc2nc(-c3ccccn3)nc3ccccc23)cc1,44.1 µM (active)
5,CC1CCN(C(=O)c2ccc3c(c2)NC(=O)/C(=C/c2ccccc2)S3)CC1,2.64 µM (active)

# From ChEMBL document CHEMBL1201862, “PubChem BioAssay data set” (2004)
